Measured values from patent US20120014880A1, “METHOD FOR THE PREVENTION AND TREATMENT OF ESSENTIAL TREMOR BY REGULATING alpha1G T-TYPE CALCIUM CHANNEL OR BY T-TYPE CALCIUM CHANNEL BLOCKERS” (Korea Advanced Institute of Science and Technology, priority 2007, published 2012).

System: harmaline induced tremor
Experiment: Inhibition of harmaline induced tremor by T-type channel blockers, measured with tremor quantification apparatus
Assay type: in vivo, mouse
Description: In the screening method of the present invention, symptoms of essential tremor of step 3) are involuntary, regular movements of hands, arms, head, face, vocal band, trunk or legs. The symptoms can be checked by movement artifact of electroenphalograph (EEG) or tremor quantification apparatus, but not always limited thereto. The tremor quantification apparatus herein is to detect tremor of the mouse, in which stainless test cage is hung on the support and the bottom of the cage is attached with accelerometer connected with electric wire to analog-digital converter so that the generated analog signals can be converted into digital signals recognizable by computer. Thereby, tremor of the mouse can be measured by analyzing the digital signals recognized by computer. […] When the strength of oscillation for 5 seconds under the frequency of 10-18 Hz, that is the characteristic frequency of harmaline induced tremor, was at least 65 dB, it was diagnosed as tremor and the time point of break (onset), duration, strength, and the maximum frequency were all measured and compared between the wild type mice and the transgenic mice. The method for measuring tremor is developed on the basis of described method in the following references (Long M A. et al., J. Neurosci. 2002 Dec. 15, 22(24):10898-905; Milner, T E. et al., J. Neurophysiol. 1995 June, 73(6):2568-77).
The α1G−/−transgenic mice generated in Example 1 and the wild-type mice were administered with the tremor inducing agents, oxotremorine (0.3 mg/kg), penitrem A (1.0 mg/kg) and harmaline (9 mg/kg) respectively by intraperitoneal injection to induce tremor. Tremor was investigated by using movement artifact of electroenphalograph (EEG) and tremor quantification apparatus designed by the present inventors. […] The accelerometer was connected to analog-digital converter (Digidata1320, Axon instrument Inc) by electric wire so that the generated analog signals could be converted into digital signals recognizable by computer. Thereby, tremor of the mouse was measured by analyzing the digital signals recognized by computer. The accelerometer was quipped to the test cage where the animals were located, and the test cage was hung in the air. The level of tremor of the animal was quantified by measuring the oscillation of the test cage. […] When the strength of oscillation for 5 seconds under the frequency of 10-18 Hz, that is the characteristic frequency of harmaline induced tremor, was at least 65 dB, it was diagnosed as tremor and the time point of development of tremor (onset), duration, strength, and the maximum frequency were all measured and compared between the wild type mice and the knockout mice.
The wild-type mouse (α1G+/+) was administered with 10 mg/kg of mibefradil by intraperitoneal injection 30 minutes before harmaline injection to investigate the therapeutic effect of mibefradil on harmaline induced tremor. In the meantime, osmotic pump (Model 1002, 0.25 ul/hour, Alzet) containing 20 mM of mibefradil was inserted into the brain of the wild-type mouse (α1G+/+). Two days later, the therapeutic effect on harmaline induced tremor was investigated by using the tremor quantification apparatus of Example 2.
The wild-type mice (α1G+/+) were administered with 150 mg/kg and 300 mg/kg of ethosuximide by intraperitoneal injection 30 minutes before harmaline injection to investigate the therapeutic effect of ethosuximide on harmaline induced tremor. For the investigation, the tremor quantification apparatus of Example 2 was used.

[1] = wild-type mice (α1G+/+), 300 mg/kg intraperitoneal injection 30 minutes before harmaline injection

Structure (SMILES) | tremor inhibiting effect on harmaline induced tremor (wild-type mice (α1G+/+), 150 mg/kg intraperitoneal injection 30 minutes before harmaline injection) | mice that did not exhibit oscillation, symptom of tremor [1] | mice that showed tremor [1] | tremor inhibiting effect on harmaline induced tremor [1] | tremor inhibiting effect on harmaline induced tremor (wild-type mouse (α1G+/+), 10 mg/kg intraperitoneal injection 30 minutes before harmaline injection) | tremor inhibiting effect on harmaline induced tremor (wild-type mouse (α1G+/+), osmotic pump containing 20 mM, 0.25 ul/hour, directly into inferior olive (IO) of the brain, two days later)
CCC1(C)CC(=O)NC1=O (stereo not drawn) [ethosuximide] | tremor inhibiting effect was observed | 60% | 40% | tremor inhibiting effect was observed | – | –
COCC(=O)O[C@]1(CCN(C)CCCc2nc3ccccc3[nH]2)CCc2cc(F)ccc2[C@@H]1C(C)C [mibefradil] | – | – | – | – | tremor inhibiting effect was not detected | tremor inhibiting effect was observed
